The text below walks through data of ChEMBL document CHEMBL3992546, “Discovery and optimization of benzimidazole derivatives as a novel chemotype of farnesoid X receptor (FXR) antagonists” (Bioorg Med Chem, 2017).

Assay [1] in a line: Antagonist activity at human FXRalpha expressed in human Hep3B cells assessed as inhibition of CDCA-induced FXR response element driven luciferase activity after 24 hrs. The class given is cell-based.
In another assay the target is T1, Bile acid receptor (Homo sapiens, UniProt Q96RI1).
T1 sequence (Q96RI1 whole entry): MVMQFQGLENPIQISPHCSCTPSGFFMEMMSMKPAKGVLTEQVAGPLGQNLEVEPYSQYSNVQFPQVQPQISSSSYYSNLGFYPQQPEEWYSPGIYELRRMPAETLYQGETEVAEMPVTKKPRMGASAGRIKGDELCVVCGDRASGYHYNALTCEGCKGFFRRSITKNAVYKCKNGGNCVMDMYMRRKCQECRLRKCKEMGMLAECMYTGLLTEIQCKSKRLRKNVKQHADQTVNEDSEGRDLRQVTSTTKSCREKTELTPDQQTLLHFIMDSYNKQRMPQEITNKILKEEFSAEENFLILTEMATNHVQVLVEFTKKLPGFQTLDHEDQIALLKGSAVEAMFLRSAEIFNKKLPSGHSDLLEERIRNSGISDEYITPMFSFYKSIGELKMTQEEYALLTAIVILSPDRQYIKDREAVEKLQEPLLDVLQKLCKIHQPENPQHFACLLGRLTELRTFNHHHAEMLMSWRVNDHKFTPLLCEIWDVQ
Description: Inhibition of GW4064-induced fluorecein-labeled SRC2-2 coactivator recruitment in GST-tagged FXR LBD (unknown origin) by Lanthascreen TR-FRET assay.

Assay [2] addresses T2, Bile acid receptor (Homo sapiens) (UniProt Q96RI1).
T2 sequence (whole entry): T1 sequence (Q96RI1 whole entry)
Put plainly: Antagonist activity at FXR in human Hep3B cells assessed as inhibition of CDCA-induced decrease in CYP7A1 expression level at 0.2 to 5 uM after 24 hrs by RT-PCR method. In kind it is cell-based.

Assay [3] has as its target T3, Retinoic acid receptor RXR-alpha (Homo sapiens) (UniProt P19793).
T3 sequence (whole entry): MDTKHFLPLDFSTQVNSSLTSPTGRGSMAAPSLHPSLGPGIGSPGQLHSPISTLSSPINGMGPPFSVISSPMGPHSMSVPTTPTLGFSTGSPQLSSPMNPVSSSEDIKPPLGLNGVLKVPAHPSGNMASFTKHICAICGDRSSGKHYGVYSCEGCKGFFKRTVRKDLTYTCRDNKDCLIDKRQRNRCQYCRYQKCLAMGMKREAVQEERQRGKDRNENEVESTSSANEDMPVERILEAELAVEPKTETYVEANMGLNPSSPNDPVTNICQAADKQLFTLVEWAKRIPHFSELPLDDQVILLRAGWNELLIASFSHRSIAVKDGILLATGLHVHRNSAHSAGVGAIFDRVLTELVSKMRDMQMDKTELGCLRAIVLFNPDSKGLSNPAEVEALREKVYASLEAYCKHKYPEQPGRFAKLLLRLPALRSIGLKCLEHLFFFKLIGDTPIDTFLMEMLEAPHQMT
Description: Antagonist activity at human RXRalpha expressed in human Hep3B cells assessed as inhibition of 9-cis-retinoic acid-induced RXR response element driven luciferase activity at 100 uM after 24 hrs. In kind it is cell-based.

The target of assay [4] is T2, Bile acid receptor (Homo sapiens). Description: Antagonist activity at FXR in human Hep3B cells assessed as inhibition of CDCA-induced SHP expression level at 0.2 to 5 uM after 24 hrs by RT-PCR method. The class given is cell-based.
The mark [5] stands for this setting: Homo sapiens, Hep3B, 24 h, read-out: IC50.

SMILES strings stand for the structures. The source made the active and inactive calls. The rule behind the calls is not given here. Bounds are passed on as bounds.

As for `Cn1c([C@H](CC2CCCCC2)N2C(=O)CN(c3ccc(Oc4ccccc4)cc3)C2=O)nc2ccc(C(=O)O)cc21`, the 50% inhibitory concentration (IC50) (as a rule, the concentration that gives 50% inhibition) in assay [1] (setting [5]) amounted to 2 µM; at Bile acid receptor, 24.4 µM.

Consider `CC[C@@H](c1nc2ccc(C(=O)O)cc2n1C)N1C(=O)CN(c2ccc(Oc3ccccc3)cc2)C1=O`, for which the concentration for half-maximal inhibition (IC50) in assay [1] (setting [5]) was 24.8 µM; against Bile acid receptor it was 209 µM.

As for `CC(C)[C@H](c1nc2ccc(C(=O)O)cc2n1C)N1C(=O)CN(c2ccc(Oc3ccccc3)cc2)C1=O`, the figures for the IC50 (in assay [1] (setting [5]); on Bile acid receptor) were 100 µM and 118 µM, respectively.

As for `Cc1ccc2nc([C@H](CC(C)C)N3C(=O)CN(c4ccc(Oc5ccccc5)cc4)C3=O)n(C)c2c1`, the 50% inhibitory concentration (IC50) in assay [1] (setting [5]) was found to be 0.175 µM; against Bile acid receptor, 65.6 µM.

Regarding `Cn1c([C@@H](Cc2ccccc2)N2C(=O)CN(c3ccc(Oc4ccccc4)cc3)C2=O)nc2ccc(C(=O)O)cc21`, the figures for the half-inhibitory concentration (IC50) (in assay [1] (setting [5]); on Bile acid receptor) were 13.9 µM and 87.5 µM, respectively.

For `CC(C)C[C@@H](c1nc2ccc(C(=O)O)cc2n1C)N1CCN(c2ccc(Oc3ccccc3)cc2)C1=O`, the IC50 in assay [1] (setting [5]) turned out to be 5.7 µM; at Bile acid receptor, 28.5 µM.

`Cn1c([C@@H](N2C(=O)CN(c3ccc(Oc4ccccc4)cc3)C2=O)C(C)(C)C)nc2ccc(C(=O)O)cc21`: the IC50 in assay [1] (setting [5]) is 6.3 µM; on Bile acid receptor, 77.1 µM.

As for `CC(C)C[C@H](c1nc2ccc(C(=O)O)cc2n1C)N1C(=O)CN(c2ccc(Oc3ccccc3)cc2)C1=O`, the IC50 in assay [1] (setting [5]) was 33.6 µM; against Bile acid receptor, 6.6 to 66.6 µM.

Turning to `CC(C)C[C@@H](c1nc2ccc(C(=O)O)cc2n1C)N1C(=O)CN(c2ccc(Oc3ccccc3)cc2)C1=O`, the IC50 in assay [1] (setting [5]) was found to be 5.6 µM; against Bile acid receptor it was 43.4 µM.

As to `Cn1c([C@H](Cc2ccccc2)N2C(=O)CN(c3ccc(Oc4ccccc4)cc3)C2=O)nc2ccc(C(=O)O)cc21`, the figures for the IC50 (in assay [1] (setting [5]); on Bile acid receptor) were 6.4 µM and 35.2 µM, respectively.

In the case of `CC(C)C[C@@H](c1nc2ccc(C(=O)O)cc2n1C)N1C(=O)CN(c2ccc(OC3CCCCC3)cc2)C1=O`, the values for the concentration for half-maximal inhibition (IC50) (in assay [1] (setting [5]); on Bile acid receptor) were 55.2 µM and 126 µM, respectively.

On to `CC(C)C[C@@H](c1nc2ccc(C(=O)O)cc2n1C)N1C(=O)CN(c2ccc(Oc3ccc(Cl)cc3)cc2)C1=O`, for which the IC50 in assay [1] (setting [5]) is 4.1 µM; on Bile acid receptor, 2.56 µM.

Take `CC(C)C[C@@H](c1nc2ccc(C(=O)O)cc2n1C)N1C(=O)CN(c2cccc(Oc3ccccc3)c2)C1=O`: the IC50 in assay [1] (setting [5]) was determined as 9.9 µM; on Bile acid receptor, 18.2 µM.

As for `Cc1ccc2nc([C@H](CC3CCCCC3)N3C(=O)CN(c4ccc(Oc5ccccc5)cc4)C3=O)n(C)c2c1`, the inhibition result in assay [2] and in assay [4] was “Active” throughout. Moreover, the inhibition entry in assay [3] was “inactive”. Further, the concentration for half-maximal inhibition (IC50) in assay [1] (setting [5]) was 0.0012 µM; at Bile acid receptor it was 126 µM.

With `CC(C)C[C@@H](c1nc2cc(C(=O)O)ccc2n1C)N1C(=O)CN(c2ccc(Oc3ccccc3)cc2)C1=O`, the half-inhibitory concentration (IC50) is 18.2 µM in assay [1] (setting [5]) and 113 µM on Bile acid receptor.

Consider `CC[C@H](C)[C@@H](c1nc2ccc(C(=O)O)cc2n1C)N1C(=O)CN(c2ccc(Oc3ccccc3)cc2)C1=O`, for which the half-maximal inhibitory concentration (IC50) came out at 3.8 µM in assay [1] (setting [5]) and 102 µM against Bile acid receptor.

As to `C/C=C1\C(=O)C[C@H]2[C@@H]3CCC4=CC(=O)CC[C@]4(C)[C@H]3CC[C@]12C` [GUGGULSTERONE], the 50% inhibitory concentration (IC50) in assay [1] (setting [5]) worked out at 2 µM.

Take `CC(C)C[C@@H](c1nc2ccc(C(=O)O)cc2n1C)N1CC(=O)N(c2ccc(Oc3ccccc3)cc2)CC1=O`: the concentration for half-maximal inhibition (IC50) entry in assay [1] is “Not Active”; at Bile acid receptor, 417 µM.

Take `CC(C)C[C@@H](c1nc2ccc(C(=O)O)cc2n1C)N1C(=O)N(c2ccc(Oc3ccccc3)cc2)C(C)(C)C1=O`: the figures for the IC50 (in assay [1] (setting [5]); against Bile acid receptor) were 24.4 µM and 105 µM, respectively.

As to `CC(C)C[C@@H](c1nc2ccc(C(=O)O)cc2n1C)N1C(=O)CN(c2ccc(-c3ccccc3)cc2)C1=O`, the IC50 in assay [1] (setting [5]) is 28.1 µM; against Bile acid receptor, 23.1 µM.

Regarding `C[C@@H](c1nc2ccc(C(=O)O)cc2n1C)N1C(=O)CN(c2ccc(Oc3ccccc3)cc2)C1=O`, the IC50 in assay [1] (setting [5]) was greater than 300 µM; against Bile acid receptor, 10.4 µM.

Turning to `COc1ccc(Oc2ccc(N3CC(=O)N([C@@H](CC(C)C)c4nc5ccc(C(=O)O)cc5n4C)C3=O)cc2)cc1`, the IC50 was 4.5 µM in assay [1] (setting [5]) and 75.3 µM against Bile acid receptor.

Consider `CC(C)C[C@@H](c1nc2ccc(C(=O)O)cc2n1C)N1C(=O)CN(c2ccc(F)cc2)C1=O`, for which the 50% inhibitory concentration (IC50) result is “Not Active” in assay [1] and 399 µM against Bile acid receptor.

On to `CC(C)[C@@H](c1nc2ccc(C(=O)O)cc2n1C)N1C(=O)CN(c2ccc(Oc3ccccc3)cc2)C1=O`, for which the half-inhibitory concentration (IC50) came out at 10.1 µM in assay [1] (setting [5]) and 174 µM at Bile acid receptor.
